{"source": "patent US4599352A", "about": "“Antineoplastic platinum (IV) complexes and compositions” (priority 1984, dated 1986)", "key": {"[1]": {"tested_on": "IP-Implanted L1210 Leukemia", "assay": "Dose-response against IP-implanted L1210 leukemia, IP treatment Days 1, 5 and 9, 30-day test (Table 2)", "assay_type": "in vivo, CD2Fl male mice", "description": "(§1) Biological properties of the compounds of the present invention were determined following the protocol described in Cancer Chemotherapy Reports, Vol. 3, No. 3, 1972 which report is incorporated herein by reference.\n(§2) This experiment (A8-00005 3LE31) was conducted at the Southern Research Institute, Birmingham, Ala. under the supervision of Dr. Daniel Griswold. The protocols were the same as those published previously (Geran et al., Cancer Chemotherapy Reports 3: No. 2, 1972 [Attachment 11]). 10^5 cells were implanted intraperitoneally in CD2Fl male mice on Day 0. Drug treatments were given intraperitoneally as single injections at the doses indicated on Days 1, 5 and 9 after tumor implantation. The diluent was saline except for NSC-271674 where 5% sodium bicarbonate was used. All drugs were prepared fresh on the day of injection, and all were administered in solution. Median survival times for both control and drug-treated mice were determined and expressed as a percentage (% T/C). Body weights were determined on Day 5 and expressed as a weight difference (body weight of the drug-treated animals minus that of the control animals in grams) (T-C). The diluent control animals lived a median of 8.4 days and gained 1.9 grams by Day 5 in this experiment. All animals, including Day 30 survivors, were used in the calculation of median survival times. The log10 change in tumor burden refers to the net log change in viable tumor cell population at the end of therapy (Rx) as compared to the start of therapy; e.g., a […] means that there was a […] and a 3 log change means there was a 1000-fold increase in tumor burden at the end of therapy. The tumor burden at the start of therapy was about 6.1×10^5 cells in this experiment."}, "IP L1210": {"tested_on": "IP L1210", "assay": "Activity against IP-implanted L1210 leukemia sensitive to cisplatin, 60 day test (Table 4)", "assay_type": "in vivo, Female CD2Fl mice", "description": "as §1\n(§3) Other known mechanisms of resistance for other classes of agents, such as gene amplification or target enzyme change or amplication, also need to be explored. The experiments summarized in Table 3 were conducted at the same time against both sublines using the same drug preparations. […] These experiments were repeated in a second laboratory as documented in Table 4. However, in these experiments the animals were held for 60 rather than 30 days to evaluate whether or not long-term survivors are produced after drug treatment in a more challenging setting.\nas §2\n(§4) These experiments (23-00081 3LE31 and 23-00003 3DP3l) were conducted concurrently at the Mason Research Institute, Worcester, MA under the supervision of Dr. William Cobb. See Table 4 for experimental details. The diluent control animals bearing L1210 leukemia lived a median of 8.3 days and gained 1.6 grams by Day 5. […] Female CD2Fl mice were used for these experiments."}, "IP L1210/Cisplatin": {"tested_on": "IP L1210/Cisplatin", "assay": "Activity against IP-implanted L1210/Cisplatin leukemia resistant to cisplatin, 60 day test (Table 4)", "assay_type": "in vivo, Female CD2Fl mice", "description": "as §1\nas §3, with “setting. […]” for “setting.”\nas §4"}, "[2]": {"tested_on": "SC Implanted L1210 Leukemia", "assay": "Activity against SC implanted L1210 leukemia following intravenous administration, once daily Days 1-5 (Table 5)", "assay_type": "in vivo, CD2Fl male mice", "description": "as §1\nIn another type of experiment the same platinum complexes were directly compared against the SC implanted L1210 following intravenous administration (Table 5).\nThis experiment (A8-00004 3LE32) was conducted at the Southern Research Institute, Birmingham, Ala. under the supervision of Dr. Daniel Griswold. The protocols were the same as those published previously (Attachment 11). 10^6 cells were implanted subcutaneously in CD2Fl male mice on Day 0. Drug treatments were given intravenously once daily at the doses indicated on Days 1-5 after tumor implantation. The dosage range tested included the highest and lowest doses indicated in the Table as well as intermediate values which were determined by multiplying each dose in turn by 0.5 starting with the highest dose. The diluent was saline except for NSC-271674 for which 5% sodium bicarbonate was used. All drugs were prepared fresh on the day of injection, and all were administered in solution. Median survival times for both control and drug-treated mice were determined and expressed as a percentage (% T/C). Body weights were determined on Day 5 and expressed as a weight difference (body weight of the drug-treated animals minus that of the control animals in grams) (T-C)."}, "IP L1210 leukemia": {"tested_on": "IP L1210 leukemia", "assay": "Mouse optimal (highest tolerated) dose, IP L1210 leukemia, Days 1, 5 and 9 schedule (Table 7)", "assay_type": "in vivo", "text": "*IP L1210 leukemia, Days 1, 5 and 9 schedule. Highest tolerated dose in a\nleast 2 of 3 experiments (i.e,. animal weight difference (testcontrol)"}}, "data": [{"smiles": "N.N.[Cl][Pt][Cl]", "note": "[Cisplatin, cis-diamminedichloroplatinum (II), reference compound]", "values": [{"measurement": "30-Day Survivors/Total", "setting": "[1]; 1.25 mg/kg/dose IP", "result": "0/6"}, {"measurement": "Approx. Log10 Change in Tumor Burden at End of Rx", "setting": "[1]; 1.25 mg/kg/dose IP", "result": "~2.9", "unit": "log10"}, {"measurement": "Body Weight Difference", "setting": "[1]; 1.25 mg/kg/dose IP", "result": -1.0, "unit": "Grams"}, {"measurement": "Median % T/C", "setting": "[1]; 1.25 mg/kg/dose IP", "result": 123, "unit": "%"}, {"measurement": "30-Day Survivors/Total", "setting": "[1]; 5 mg/kg/dose IP", "result": "0/6"}, {"measurement": "Approx. Log10 Change in Tumor Burden at End of Rx", "setting": "[1]; 5 mg/kg/dose IP", "result": "~2.4", "unit": "log10"}, {"measurement": "Body Weight Difference", "setting": "[1]; 5 mg/kg/dose IP", "result": -1.4, "unit": "Grams"}, {"measurement": "Median % T/C", "setting": "[1]; 5 mg/kg/dose IP", "result": 152, "unit": "%"}, {"measurement": "30-Day Survivors/Total", "setting": "[1]; 10 mg/kg/dose IP", "result": "0/6"}, {"measurement": "Approx. Log10 Change in Tumor Burden at End of Rx", "setting": "[1]; 10 mg/kg/dose IP", "result": "~1.9", "unit": "log10"}, {"measurement": "Body Weight Difference", "setting": "[1]; 10 mg/kg/dose IP", "result": -1.3, "unit": "Grams"}, {"measurement": "Median % T/C", "setting": "[1]; 10 mg/kg/dose IP", "result": 166, "unit": "%"}, {"measurement": "30-Day Survivors/Total", "setting": "[1]; 20 mg/kg/dose IP", "result": "3/6"}, {"measurement": "Approx. Log10 Change in Tumor Burden at End of Rx", "setting": "[1]; 20 mg/kg/dose IP", "result": "~-5.7", "unit": "log10"}, {"measurement": "Body Weight Difference", "setting": "[1]; 20 mg/kg/dose IP", "result": -5.0, "unit": "Grams"}, {"measurement": "Median % T/C", "setting": "[1]; 20 mg/kg/dose IP", "result": 357, "unit": "%"}, {"measurement": "Log reduction in tumor cell burden at the end of therapy", "setting": "[1]; best dose", "result": -5.7, "unit": "log10"}, {"measurement": "Optimal dose (dose producing best therapeutic response)", "setting": "[1]; day 1, 5 and 9 schedule", "result": 20, "unit": "mg/kg/injection"}, {"measurement": "60 Day Survivors/Total", "setting": "IP L1210; 1.25 mg/kg/dose", "result": "0/10"}, {"measurement": "Body Weight Difference", "setting": "IP L1210; 1.25 mg/kg/dose", "result": -0.6, "unit": "Grams"}, {"measurement": "Median % T/C", "setting": "IP L1210; 1.25 mg/kg/dose", "result": 127, "unit": "%"}, {"measurement": "60 Day Survivors/Total", "setting": "IP L1210; 5 mg/kg/dose", "result": "0/10"}, {"measurement": "Body Weight Difference", "setting": "IP L1210; 5 mg/kg/dose", "result": -2.4, "unit": "Grams"}, {"measurement": "Median % T/C", "setting": "IP L1210; 5 mg/kg/dose", "result": 240, "unit": "%"}, {"measurement": "60 Day Survivors/Total", "setting": "IP L1210; 10 mg/kg/dose", "result": "0/10"}, {"measurement": "Body Weight Difference", "setting": "IP L1210; 10 mg/kg/dose", "result": -5.1, "unit": "Grams"}, {"measurement": "Median % T/C", "setting": "IP L1210; 10 mg/kg/dose", "result": 107, "unit": "%"}, {"measurement": "60 Day Survivors/Total", "setting": "IP L1210; 20 mg/kg/dose", "result": "0/10"}, {"measurement": "Body Weight Difference", "setting": "IP L1210; 20 mg/kg/dose", "result": -5.8, "unit": "Grams"}, {"measurement": "Median % T/C", "setting": "IP L1210; 20 mg/kg/dose", "result": "Toxic"}, {"measurement": "60 Day Survivors/Total", "setting": "IP L1210/Cisplatin; 1.25 mg/kg/dose", "result": "0/10"}, {"measurement": "Body Weight Difference", "setting": "IP L1210/Cisplatin; 1.25 mg/kg/dose", "result": -0.1, "unit": "Grams"}, {"measurement": "Median % T/C", "setting": "IP L1210/Cisplatin; 1.25 mg/kg/dose", "result": 103, "unit": "%"}, {"measurement": "60 Day Survivors/Total", "setting": "IP L1210/Cisplatin; 5 mg/kg/dose", "result": "0/10"}, {"measurement": "Body Weight Difference", "setting": "IP L1210/Cisplatin; 5 mg/kg/dose", "result": -2.3, "unit": "Grams"}, {"measurement": "Median % T/C", "setting": "IP L1210/Cisplatin; 5 mg/kg/dose", "result": 110, "unit": "%"}, {"measurement": "60 Day Survivors/Total", "setting": "IP L1210/Cisplatin; 10 mg/kg/dose", "result": "0/10"}, {"measurement": "Body Weight Difference", "setting": "IP L1210/Cisplatin; 10 mg/kg/dose", "result": -5.1, "unit": "Grams"}, {"measurement": "Median % T/C", "setting": "IP L1210/Cisplatin; 10 mg/kg/dose", "result": 87, "unit": "%"}, {"measurement": "60 Day Survivors/Total", "setting": "IP L1210/Cisplatin; 20 mg/kg/dose", "result": "0/10"}, {"measurement": "Body Weight Difference", "setting": "IP L1210/Cisplatin; 20 mg/kg/dose", "result": -5.6, "unit": "Grams"}, {"measurement": "Median % T/C", "setting": "IP L1210/Cisplatin; 20 mg/kg/dose", "result": "Toxic"}, {"measurement": "Activity against L1210/cisplatin", "setting": "IP L1210/Cisplatin; mouse, in vivo", "result": "lack of activity"}, {"measurement": "Body Weight Difference", "setting": "[2]; 5 mg/kg/inj IV", "result": -5.7, "unit": "Grams"}, {"measurement": "Median % T/C", "setting": "[2]; 5 mg/kg/inj IV", "result": 138, "unit": "%"}, {"measurement": "Median Survival Time", "setting": "[2]; 5 mg/kg/inj IV", "result": 14.3, "unit": "days"}, {"measurement": "Optimal Dose", "setting": "[2]; IV once daily Days 1-5", "result": 5, "unit": "mg/kg/inj"}, {"measurement": "Mouse Optimal Dose (highest tolerated dose in at least 2 of 3 experiments)", "setting": "IP L1210 leukemia", "result": 10, "unit": "mg/kg"}]}]}
